Each structure is given as a SMILES string. Where a name gives a salt, the structure may show the parent alone. Read-outs that look alike come from different tables or passages of the source. Where a SMILES comes first, the peptide text is derived from it. [ ]: non-standard residue; d: D form. The star is where a group is joined. Hexanoyl = CCCCCC(=O)*; Ahx = NCCCCCC(=O)O

Assay [1] deals with T1, SARS-CoV-2 PLpro (nsp3 1564–1878) (Severe acute respiratory syndrome coronavirus 2, UniProt P0DTD1). Put plainly: biochemical. To be noted: low concentration screen, read-out: % of control remaining. Also on record: FRET-quenched peptide (Pro3) cleavage by PLpro, 10 min pre-incubation, slope over 20 min, normalised to no-compound control.
The target of assay [2] is T1, SARS-CoV-2 PLpro (nsp3 1564–1878). Put plainly: biochemical. Particulars: high concentration screen, read-out: % of control remaining. Also on record: FRET-quenched peptide (Pro3) cleavage by PLpro, 10 min pre-incubation, slope over 20 min, normalised to no-compound control.

As to `CN1CC[C@@]23CCCC[C@@H]2[C@@H]1Cc1ccc(O)cc13` [Dextrorphan D-tartrate], the remaining activity at 1.25 µM in assay [1] (Well no.=592) stood at 101%. Moreover, the remaining activity at 3.75 µM in assay [2] (Well no.=592) was 103%.
As for `OC[C@H]1OC(O)[C@H](O)[C@@H](O)[C@@H]1O` (some centres unmarked) [Dextrose], the remaining activity at 1.25 µM in assay [1] (Well no.=6497) came out at 97.3%. Further, in assay [2] (Well no.=6497), the remaining activity at 3.75 µM was 99.3%.
As for `CC(=O)N(C(C)=O)c1ccc(N=Nc2ccccc2C)cc1C` [Diacetazotol], the remaining activity at 1.25 µM in assay [1] (Well no.=7840) is 98.8%. Moreover, in assay [2] (Well no.=7840), the remaining activity at 3.75 µM was 97.2%.
In the case of `O=c1c2ccccc2[nH]c(=S)n1CCN1CCC(=C(c2ccc(F)cc2)c2ccc(F)cc2)CC1` [Diacylglycerol Kinase Inhibitor II], the results for the remaining activity at 1.25 µM in assay [1] (Well no.=597) and in assay [1] (Well no.=2369) were 93.5% and 98.2%, respectively. Besides, the remaining activity at 3.75 µM was 95.5% in assay [2] (Well no.=597) and 99.1% in assay [2] (Well no.=2369).
Regarding `CC1=Nc2ccc(Cl)cc2S(=O)(=O)N1` [Diazoxide], the remaining activity at 1.25 µM came out at 105% in assay [1] (Well no.=394) and 92.9% in assay [1] (Well no.=1804). In addition, the remaining activity at 3.75 µM in assay [2] (Well no.=394) amounted to 101%; in assay [2] (Well no.=1804), 93.4%.
On to `CN(C)CCN1C(=O)c2ccccc2N(C)c2ccccc21` [Dibenzepine], for which the remaining activity at 1.25 µM in assay [1] (Well no.=2096) is 97%. For the same molecule, the remaining activity at 3.75 µM in assay [2] (Well no.=2096) was determined as 99.6%.
As to `N#CC(c1ccc(Cl)cc1)c1c(Cl)cc(-n2ncc(=O)[nH]c2=O)cc1Cl` (centres unmarked) [Diclazuril], the remaining activity at 1.25 µM in assay [1] (Well no.=5268) stood at 91.9%. Besides, in assay [2] (Well no.=5268), the remaining activity at 3.75 µM came out at 96.8%.
As to `O=C(O)Cc1ccccc1Nc1c(Cl)cccc1Cl` [Diclofenac Diethylamine], the remaining activity at 1.25 µM in assay [1] (Well no.=5309) turned out to be 103%. The remaining activity at 3.75 µM in assay [2] (Well no.=5309) turned out to be 98.6%.
As to `O=C(O)Cc1ccccc1Nc1c(Cl)cccc1Cl` [Diclofenac Potassium], the remaining activity at 1.25 µM in assay [1] (Well no.=5307) was 101%. The remaining activity at 3.75 µM in assay [2] (Well no.=5307) came out at 100%.
As to `O=C(O)Cc1ccccc1Nc1c(Cl)cccc1Cl` [Diclofenac sodium], the remaining activity at 1.25 µM in assay [1] (Well no.=580) was found to be 94%. Moreover, the remaining activity at 3.75 µM in assay [2] (Well no.=580) is 96.6%.
As to `O=C(O)Cc1ccccc1Nc1c(Cl)cccc1Cl` [Diclofenac], in assay [1] (Well no.=1978), the remaining activity at 1.25 µM stood at 102%. In assay [2] (Well no.=1978), the remaining activity at 3.75 µM amounted to 102%.
In the case of `Cc1onc(-c2c(Cl)cccc2Cl)c1C(=O)N[C@@H]1C(=O)N2[C@@H]1SC(C)(C)[C@@H]2C(=O)O` [Dicloxacillin Sodium], the remaining activity at 1.25 µM in assay [1] (Well no.=5360) was 90.3%. In addition, the remaining activity at 3.75 µM in assay [2] (Well no.=5360) was found to be 89.6%.
For the molecule `O=c1oc2ccccc2c(O)c1Cc1c(O)c2ccccc2oc1=O` [Dicoumarol], in assay [1] (Well no.=3547), the remaining activity at 1.25 µM came out at 104%. Also, in assay [2] (Well no.=3547), the remaining activity at 3.75 µM was found to be 105%.
Consider `O=c1[nH]cnc2c1ncn2[C@H]1CC[C@@H](CO)O1` [Didanosine], for which the remaining activity at 1.25 µM in assay [1] (Well no.=1868) amounted to 97.7%. Also, the remaining activity at 3.75 µM in assay [2] (Well no.=1868) is 104%.
Turning to `C[C@]12CCC3=C4CCC(=O)C=C4CC[C@H]3[C@@H]1CC[C@@]2(O)CC#N` [Dienogest], the remaining activity at 1.25 µM in assay [1] (Well no.=5145) stood at 102%. Besides, the remaining activity at 3.75 µM in assay [2] (Well no.=5145) is 102%.
Consider `O=C(O)CN(CCN(CC(=O)O)CC(=O)O)CCN(CC(=O)O)CC(=O)O` [Diethylenetriaminepentaacetic acid], for which the remaining activity at 1.25 µM in assay [1] (Well no.=532) amounted to 100%. In addition, the remaining activity at 3.75 µM in assay [2] (Well no.=532) is 97.9%.
Turning to `O=C(O)c1cc(-c2ccc(F)cc2F)ccc1O` [Diflunisal], the remaining activity at 1.25 µM in assay [1] (Well no.=1984) was found to be 102%. Besides, in assay [2] (Well no.=1984), the remaining activity at 3.75 µM was 102%.
For `C[C@H]1O[C@@H](O[C@H]2[C@@H](O)C[C@H](O[C@H]3[C@@H](O)C[C@H](O[C@H]4CC[C@@]5(C)[C@H](CC[C@@H]6[C@@H]5CC[C@]5(C)[C@@H](C7=CC(=O)OC7)CC[C@]65O)C4)O[C@@H]3C)O[C@@H]2C)C[C@H](O)[C@@H]1O` [Digitoxin], in assay [1] (Well no.=3463), the remaining activity at 1.25 µM amounted to 104%. For the same molecule, the remaining activity at 3.75 µM in assay [2] (Well no.=3463) stood at 105%.
As for `CCCCCC(=O)N[C@@H](Cc1ccc(O)cc1)C(=O)N[C@H](C(=O)NCCCCCC(N)=O)[C@@H](C)CC` [Dihexa] (Hexanoyl-Tyr-Ile-[Ahx]-NH2), in assay [1] (Well no.=8646), the remaining activity at 1.25 µM came out at 98.6%. For the same molecule, the remaining activity at 3.75 µM in assay [2] (Well no.=8646) was determined as 98.4%.
As for `CCCCC/C=C\C/C=C\C/C=C\CCCCCCC(=O)O` [Dihomo-γ-linolenic acid], the remaining activity at 1.25 µM in assay [1] (Well no.=4317) came out at 99%. The remaining activity at 3.75 µM in assay [2] (Well no.=4317) was found to be 99.1%.
For the molecule `CO[C@H]1CC=C2CCN3CCC4=C(CC(=O)OC4)[C@]23C1` [Dihydro-beta-erythroidine hydrobromide], in assay [1] (Well no.=690), the remaining activity at 1.25 µM was found to be 88.8%. Further, the remaining activity at 3.75 µM in assay [2] (Well no.=690) was determined as 88.6%.
With `CC(C)[C@@]1(NC(=O)[C@@H]2C[C@@H]3c4cccc5[nH]cc(c45)C[C@H]3N(C)C2)O[C@@]2(O)[C@@H]3CCCN3C(=O)[C@H](Cc3ccccc3)N2C1=O` [Dihydroergocristine mesylate], the remaining activity at 1.25 µM in assay [1] (Well no.=3231) amounted to 108%. Further, the remaining activity at 3.75 µM in assay [2] (Well no.=3231) worked out at 105%.
`CC(C)[C@@]1(NC(=O)[C@@H]2C[C@@H]3c4cccc5[nH]cc(c45)C[C@H]3N(C)C2)O[C@@]2(O)[C@@H]3CCCN3C(=O)[C@H](Cc3ccccc3)N2C1=O` [Dihydroergocristine methanesulfonate]: the remaining activity at 1.25 µM in assay [1] (Well no.=404) turned out to be 102%. Further, in assay [2] (Well no.=404), the remaining activity at 3.75 µM was found to be 101%.
`CC(C)[C@@]1(NC(=O)[C@@H]2C[C@@H]3c4cccc5[nH]cc(c45)C[C@H]3N(C)C2)O[C@@]2(O)[C@@H]3CCCN3C(=O)[C@H](Cc3ccccc3)N2C1=O` [Dihydroergocristine]: the remaining activity at 1.25 µM in assay [1] (Well no.=2098) is 104%. In addition, the remaining activity at 3.75 µM in assay [2] (Well no.=2098) was determined as 102%.
For `CN1C[C@H](C(=O)N[C@]2(C)O[C@@]3(O)[C@@H]4CCCN4C(=O)[C@H](Cc4ccccc4)N3C2=O)C[C@@H]2c3cccc4[nH]cc(c34)C[C@H]21` [Dihydroergotamine (mesylate)], in assay [1] (Well no.=6947), the remaining activity at 1.25 µM was found to be 92.6%. The remaining activity at 3.75 µM in assay [2] (Well no.=6947) turned out to be 92.7%.
`CN1C[C@H](C(=O)N[C@]2(C)O[C@@]3(O)[C@@H]4CCCN4C(=O)[C@H](Cc4ccccc4)N3C2=O)C[C@@H]2c3cccc4[nH]cc(c34)C[C@H]21` [Dihydroergotamine mesylate]: in assay [1] (Well no.=1701), the remaining activity at 1.25 µM was determined as 98.4%. Further, the remaining activity at 3.75 µM in assay [2] (Well no.=1701) was 98.9%.
For the molecule `CN1C[C@H](C(=O)N[C@]2(C)O[C@@]3(O)[C@@H]4CCCN4C(=O)[C@H](Cc4ccccc4)N3C2=O)C[C@@H]2c3cccc4[nH]cc(c34)C[C@H]21` [Dihydroergotamine methanesulfonate], the remaining activity at 1.25 µM in assay [1] (Well no.=543) is 102%. Further, the remaining activity at 3.75 µM in assay [2] (Well no.=543) was found to be 104%.
Turning to `CC(C)[C@H]1CN[C@H](C(=O)O)[C@H]1CC(=O)O` [Dihydrokainic acid], the remaining activity at 1.25 µM in assay [1] (Well no.=635) was 93.4%. The remaining activity at 3.75 µM in assay [2] (Well no.=635) was determined as 94%.
Take `COC1=CC(=O)O[C@@H](CCc2ccc3c(c2)OCO3)C1` [Dihydromethysticin]: in assay [1] (Well no.=3303), the remaining activity at 1.25 µM is 100%. The remaining activity at 3.75 µM in assay [2] (Well no.=3303) is 102%.

Values taken from PMC8286840, “Identifying SARS-CoV-2 antiviral compounds by screening for small molecule inhibitors of Nsp3 papain-like protease” (Biochemical Journal, 2021).
